According to patent US20080233187A1, “Method of Production of Fine-Crystalline Mixture Containing Non-Steroid Anti-Inflammatory Drug, Fine-Crystalline Mixture Obtainable by this Method and Solid Pharmaceutical Composition Containing this Mixture” (priority 2005, published 2008):

Key:
[1] = most commonly represented sizes of crystals (photographs of the crystals); type: physicochemical
From the text: The auxiliary substance in the fine-crystalline mixtures was Avicel®.

[2] = racemic mixture administered to a human; cited from earlier work
[3] = release rate of the active ingredient from capsules and tablets (European Pharmacopoeia, chapter 2.9.3.); type: physicochemical; conditions: tablets of recipe C2 composition with fine-crystalline mixture of the drug and microcrystalline cellulose, direct pressing (FIG. 5 and 6)
Description: The release rate of the active ingredient from the capsules prepared by the process described above, and for comparison also from the tablets, was tested by the method of the European Pharmacopoeia for testing solid pharmaceutical forms (chapter 2.9.3.). The medium used was phosphate buffer having pH 7.2.

Q: Which “lengthwise size of the stick-form crystals” value ([1]; starting material (photograph FIG. 7)) does the source give for CC(C)Cc1ccc([C@H](C)C(=O)O)cc1 [coarse-crystalline S(+)-ibuprofen, S(+)-2-(4-isobutylphenyl)-propionic acid] here?
A: The value was “about 200 micrometers”.

Q: And the length of crystals ([1]; starting material, no solvent)?
A: The length of crystals was 250 μm.

Q: And the width of crystals ([1]; starting material, no solvent)?
A: Its width of crystals is 65 μm.

Q: For CC(C)Cc1ccc([C@@H](C)C(=O)O)cc1 [R(−)-ibuprofen, R(−)-2-(4-isobutylphenyl)-propionic acid], which “conversion of R(−)-enantiomer to the S(+) form” value [2] is on record?
A: The value was 50 to 60%.

Q: Which “release of the active ingredient from the tablet” value [3] does the source give for CN1C(C(=O)Nc2ccccn2)=C(O)c2ccccc2S1(=O)=O [piroxicam, 4-hydroxy-2-methyl-3-[(2-pyridyl)aminocarbonyl]-2H-1,2-benzothiazin-1,1-dioxide] here?
A: Its value is “very fast release”.

Q: With CS(=O)(=O)Nc1ccc([N+](=O)[O-])cc1Oc1ccccc1 [nimesulide, N-(4-nitro-2-phenoxyphenyl)-methanesulphonamide] as the compound, how does the “release of the active ingredient from the tablet” value [3] read?
A: The value was “very fast release”.
